Reference: patent publication US20250171462A1 (NICO Therapeutics, Inc., priority 2022, published 2025)
Read-outs that look alike come from different tables or passages of the source.

Biological target: T1, full-length SARM1 (FL-SARM1) (Homo sapiens, UniProt Q6SZW1)
T1 sequence (Q6SZW1 28-724): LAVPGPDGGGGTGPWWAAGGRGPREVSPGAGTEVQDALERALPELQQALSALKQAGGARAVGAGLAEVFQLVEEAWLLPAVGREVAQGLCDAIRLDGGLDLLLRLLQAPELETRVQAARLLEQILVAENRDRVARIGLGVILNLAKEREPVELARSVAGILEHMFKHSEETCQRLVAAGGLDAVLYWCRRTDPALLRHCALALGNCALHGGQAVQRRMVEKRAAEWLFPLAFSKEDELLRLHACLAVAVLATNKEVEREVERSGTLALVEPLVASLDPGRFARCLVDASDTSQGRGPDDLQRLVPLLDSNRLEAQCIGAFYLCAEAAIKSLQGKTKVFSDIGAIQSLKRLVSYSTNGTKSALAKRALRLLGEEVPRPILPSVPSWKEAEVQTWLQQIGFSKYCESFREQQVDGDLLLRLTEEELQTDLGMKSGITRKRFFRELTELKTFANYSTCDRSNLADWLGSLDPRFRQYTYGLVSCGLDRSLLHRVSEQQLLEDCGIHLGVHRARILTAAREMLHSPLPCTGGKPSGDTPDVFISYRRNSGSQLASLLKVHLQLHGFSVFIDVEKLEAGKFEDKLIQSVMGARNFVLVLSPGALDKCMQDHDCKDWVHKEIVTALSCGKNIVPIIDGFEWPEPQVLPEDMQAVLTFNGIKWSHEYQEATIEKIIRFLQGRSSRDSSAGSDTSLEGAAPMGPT
Assay: FL-SARM1 cellular lysate assay (NAD/NADH-Glo detection of remaining NAD+, NMN-activated)

[1] = Activity (μM) (IC50), 11 point curve
[2] = read-out: Activity (IC50 class), 11 point curve
[3] = Activity (IC50 class), 11 point curve

Compound	IC50 [1] [µM]	IC50 [2] [µM]	IC50 [3] [µM]
C[C@@H]1CC2C[C@H](C1)N2C(=O)Nc1ccc(CF)c(-c2ncc(F)cn2)c1 [Example 179, cis-N-(4-(fluoromethyl)-3-(5-fluoropyrimidin-2-yl)phenyl)-3-methyl-6-azabicyclo[3.1.1]heptane-6-carboxamide]	0.03	0.0001 to 1	–
Cc1ccc(NC(=O)N2C3CCCC2C3)cc1-c1cnccn1 [Example 53, N-(4-methyl-3-(pyrazin-2-yl)phenyl)-6-azabicyclo[3.1.1]heptane-6-carboxamide]	0.8	0.0001 to 1	–
Cc1ccc(NC(=O)N2C3CCC2[C@H](C)C3)cc1-c1ncc(F)cn1 (single isomer, unassigned) [Example 197, trans-N-[3-(5-fluoropyrimidin-2-yl)-4-methylphenyl]-2-methyl-7-azabicyclo[2.2.1]heptane-7-carboxamide]	0.4	0.0001 to 1	–
Cc1ccc(NC(=O)C2[C@@H]3CC[C@@]2(c2ccnn2C)C3)cc1-c1ncc(F)cn1 (single isomer, unassigned) [Example 203, N-[3-(5-fluoropyrimidin-2-yl)-4-methylphenyl]-1-(2-methylpyrazol-3-yl)bicyclo[2.1.1]hexane-5-carboxamide]	> 50	–	> 10
Cc1ccc(NC(=O)[C@H]2C[C@@H](C3CC3)C2)cc1-c1ccccn1 (single isomer, unassigned) [Example 122, cis-3-cyclopropyl-N-(4-methyl-3-pyridin-2-ylphenyl)cyclobutane-1-carboxamide]	0.3	0.0001 to 1	–
Cc1ccc(NC(=O)N2C3CCCC2CC3)cc1-c1ccc(F)cn1 [Example 14, N-(3-(5-fluoropyridin-2-yl)-4-methylphenyl)-8-azabicyclo[3.2.1]octane-8-carboxamide]	0.1	0.0001 to 1	–
CCOC(C)[C@@]12CC(C[C@@H](C)C1)N2C(=O)Nc1ccc(C)c(-c2ncc(F)cn2)c1 (single isomer, unassigned) [Example 187, cis-1-(1-ethoxyethyl)-N-(3-(5-fluoropyrimidin-2-yl)-4-methylphenyl)-3-methyl-6-azabicyclo[3.1.1]heptane-6-carboxamide]	0.2	0.0001 to 1	–
Cc1ccc(NC(=O)C2CC3CC[C@H]2C3)cc1-c1ccccn1 (single isomer, unassigned) [Example 139, cis-N-(4-methyl-3-pyridin-2-ylphenyl)bicyclo[2.2.1]heptane-2-carboxamide]	0.2	0.0001 to 1	–
CCN1CC2CC(C1)N2C(=O)Nc1ccc(C)c(-c2ccccn2)c1 [Example 7, 3-Ethyl-N-(4-methyl-3-(pyridin-2-yl)phenyl)-3,6-diazabicyclo[3.1.1]heptane-6-carboxamide]	4	–	1 to 10
Cc1ccc(NC(=O)N2C3CCC2c2ncccc23)cc1-c1ccccn1 (stereo not drawn) [Example 100, N-(4-methyl-3-pyridin-2-ylphenyl)-3,11-diazatricyclo[6.2.1.02,7]undeca-2,4,6-triene-11-carboxamide]	0.6	0.0001 to 1	–
Cc1cc(F)c(NC(=O)N2[C@@H]3C[C@@H](C)C[C@H]2C3)cc1-c1ccccn1 [Example 255, cis-N-(2-fluoro-4-methyl-5-pyridin-2-ylphenyl)-3-methyl-6-azabicyclo[3.1.1]heptane-6-carboxamide]	0.02	0.0001 to 1	–
Cc1ccc(NC(=O)N2[C@@H]3C[C@@H](C)C[C@H]2C3)cc1-c1ncccn1 [Example 223, cis-3-methyl-N-(4-methyl-3-pyrimidin-2-ylphenyl)-6-azabicyclo[3.1.1]heptane-6-carboxamide]	0.04	0.0001 to 1	–
Cc1ccc(NC(=O)[C@H]2CC[C@@H](C)CN2c2ncccn2)cc1-c1ncccn1 (single isomer, unassigned) [Example 206, cis-5-methyl-N-(4-methyl-3-(pyrimidin-2-yl)phenyl)-1-(pyrimidin-2-yl)piperidine-2-carboxamide]	0.7	0.0001 to 1	–
CNC(=O)CC12CC(C)CC(C1)N2C(=O)Nc1ccc(C)c(-c2ncc(F)cn2)c1 (stereo not drawn) [Example 305, N-(3-(5-fluoropyrimidin-2-yl)-4-methylphenyl)-3-methyl-1-(2-(methylamino)-2-oxoethyl)-6-azabicyclo[3.1.1]heptane-6-carboxamide]	0.01	0.0001 to 1	–
Cc1ccc(NC(=O)N2C3CCC2c2c(F)cncc23)cc1-c1ccccn1 (stereo not drawn) [Example 15, 4-fluoro-N-(4-methyl-3-(pyridin-2-yl)phenyl)-5,6,7,8-tetrahydro-5,8-epiminoisoquinoline-9-carboxamide]	0.4	0.0001 to 1	–
Cc1ccc(NC(=O)N2[C@@H]3C[C@@H](C)C[C@H]2C3)cc1-c1ccccn1 [Example 11, cis-3-Methyl-N-(4-methyl-3-(pyridin-2-yl)phenyl)-6-azabicyclo[3.1.1]heptane-6-carboxamide]	0.01	0.0001 to 1	–
Cc1ccc(NC(=O)[C@@H]2C[C@@H]3C[C@@H]3C2)cc1-c1ncc(F)cn1 [Example 325]	1.2	–	1 to 10
CO[C@@H]1CCCN(C(=O)Nc2ccc(C(F)(F)F)c(-c3ncc(F)cn3)c2)CC1 [Example 306, (R)-N-(3-(5-fluoropyrimidin-2-yl)-4-(trifluoromethyl)phenyl)-4-methoxyazepane-1-carboxamide]	9.6	–	1 to 10
O=C(Nc1ccc(Cl)c(-c2ccc(F)cn2)c1)N1C2CCCC1C2 [Example 46, N-(4-chloro-3-(5-fluoropyridin-2-yl)phenyl)-6-azabicyclo[3.1.1]heptane-6-carboxamide]	0.2	0.0001 to 1	–
Cc1ccc(NC(=O)N2CC3CCC2c2ccccc23)cc1-c1ccccn1 (stereo not drawn) [Example 16, N-(4-methyl-3-(pyridin-2-yl)phenyl)-1,2,3,4-tetrahydro-1,4-(epiminomethano)naphthalene-10-carboxamide]	1.1	–	1 to 10
Cc1ccc(NC(=O)N2C3CCCC2C3)cc1-c1ncccc1C1CC1 [Example 32, N-(3-(3-cyclopropylpyridin-2-yl)-4-methylphenyl)-6-azabicyclo[3.1.1]heptane-6-carboxamide]	6.1	–	1 to 10
COCCOCc1ccnc(-c2cc(NC(=O)N3[C@@H]4C[C@@H](C)C[C@H]3C4)ccc2C)n1 [Example 243, cis-N-[3-[4-(2-methoxyethoxymethyl)pyrimidin-2-yl]-4-methylphenyl]-3-methyl-6-azabicyclo[3.1.1]heptane-6-carboxamide]	1.1	–	1 to 10
CC[C@H]1C[C@H]1C(=O)Nc1ccc(C)c(-c2ccccn2)c1 (single isomer, unassigned) [Example 109, cis-2-ethyl-N-(4-methyl-3-pyridin-2-ylphenyl)cyclopropane-1-carboxamide]	0.3	0.0001 to 1	–
Cc1ccc(NC(=O)C2C3CCC2C3)cc1-c1ccccn1 (stereo not drawn) [Example 123, N-(4-methyl-3-pyridin-2-ylphenyl)bicyclo[2.1.1]hexane-5-carboxamide]	0.3	0.0001 to 1	–
Cc1ccc(NC(=O)N2C3C[C@H](OC(F)F)C[C@H]2C3)cc1-c1ccccn1 [Example 29, trans-3-(difluoromethoxy)-N-(4-methyl-3-(pyridin-2-yl)phenyl)-6-azabicyclo[3.1.1]heptane-6-carboxamide]	0.06	0.0001 to 1	–
CCc1ccc(-c2cc(NC(=O)N3C4C[C@@H](C)C[C@H]3C4)ccc2C)nn1 [Example 234, cis-N-[3-(6-ethylpyridazin-3-yl)-4-methylphenyl]-3-methyl-6-azabicyclo[3.1.1]heptane-6-carboxamide]	0.4	0.0001 to 1	–
COc1cccnc1-c1cc(NC(=O)N2C3CCCC2C3)ccc1C [Example 58, N-(3-(3-methoxypyridin-2-yl)-4-methylphenyl)-6-azabicyclo[3.1.1]heptane-6-carboxamide]	12	–	> 10
CCc1ccc(-c2cc(NC(=O)[C@@H]3CC3(F)F)ccc2C)nc1 [Example 146, (1S)-N-[3-(5-ethylpyridin-2-yl)-4-methylphenyl]-2,2-difluorocyclopropane-1-carboxamide]	7.3	–	1 to 10
COCC12CC(C)CC(C1)N2C(=O)Nc1cc(-c2ncccn2)c(C)cc1F (single isomer, unassigned) [Example 199, trans-N-(2-fluoro-4-methyl-5-pyrimidin-2-ylphenyl)-1-(methoxymethyl)-3-methyl-6-azabicyclo[3.1.1]heptane-6-carboxamide]	4.3	–	1 to 10
COc1cncc(-c2cc(NC(=O)N3C4C[C@@H](C)C[C@H]3C4)ccc2C)n1 [Example 218, cis-N-(3-(6-methoxypyrazin-2-yl)-4-methylphenyl)-3-methyl-6-azabicyclo[3.1.1]heptane-6-carboxamide]	0.03	0.0001 to 1	–
